Laboratory results from US20080033010A1, “Combination therapy of erdosteine and beta-2 agonists for treating respiratory pathologies characterized by non reversible or partially reversible airway obstruction” (EDMOND PHARMA s.r.l., priority 2006, published 2008).

Test system: newly diagnosed COPD subjects
Assay: Test of bronchial reversibility with salbutamol (spirometry, FEV1) before and after 4 and 10 days of erdosteine therapy, double-blind against placebo
Assay type: in vivo, humans
Method: This effect has been found in a trial utilizing the test of bronchial reversibility with salbutamol before and after 4 and 10 days of therapy with erdosteine at the dose of 900 mg/day, that is the maximum dosage presently approved in humans. The standard protocol has been used: spirometry was performed before and 15-20 minutes after the administration of […] of salbutamol with a metered inhaler. For reducing the bias, the study was double-blind against placebo and the patients selected were newly diagnosed COPD subjects never treated with −2 agonists. 7 patients were treated with erdosteine and 7 with placebo in a random order. At baseline, all the patients had only a partial reversibility (mean 2.5%) of bronchial obstruction calculated with the FEV1 (the absolute values were 1.5 liters before salbutamol and 1.537 liters after salbutamol), thus fully meeting the COPD definition. When the test was repeated at Day 4 of therapy, the reversibility of bronchial obstruction in the placebo group was not different from the baseline values (mean increase of FEV1: 0.9%), while in the erdosteine group there was a significant and unexpected increase of post-salbutamol FEV1 values in all the patients (mean increase of FEV1: 7.1%).

[1] = Patient #1, after 4 days of erdosteine therapy
[2] = Patient #1, after 10 days of erdosteine therapy
[3] = Patient #4, after 4 days of erdosteine therapy
[4] = Patient #4, after 10 days of erdosteine therapy
[5] = Patient #4, before therapy (baseline)
[6] = baseline, all the patients, before therapy

Compound: O=C(O)CSCC(=O)NC1CCSC1=O (centres unmarked) [erdosteine]
- FEV1 post salbutamol [1]: 2.05
- FEV1 pre salbutamol [1]: 1.85
- increase of FEV1 post vs pre salbutamol [1]: +10.8%
- FEV1 post salbutamol [2]: 2.13
- FEV1 pre-salbutamol [2]: 1.93
- increase of FEV1 post vs pre salbutamol [2]: +9.4%
- FEV1 post salbutamol (Patient #1, before therapy (baseline)): 1.81
- FEV1 pre-salbutamol (Patient #1, before therapy (baseline) (entry two)): 1.81
- FEV1 pre-salbutamol (Patient #4 (person one), before therapy (baseline)): 1.19
- FEV1 post salbutamol [3]: 1.96
- FEV1 pre salbutamol [3]: 1.74
- increase of FEV1 post vs pre salbutamol [3]: +12.6%
- FEV1 post salbutamol [4]: 1.92
- FEV1 pre-salbutamol [4]: 1.69
- increase of FEV1 post vs pre salbutamol [4]: +13%
- FEV1 post salbutamol [5]: 1.26
- increase of FEV1 post vs pre salbutamol [5]: +5.9%
- reversal of the bronchial obstruction (erdosteine administered with beta agonists vs beta agonist alone): much more evident than that obtained with the beta agonist alone
- mean increase of FEV1 (reversibility of bronchial obstruction, post-salbutamol) (erdosteine group (7 patients), Day 4 of therapy, erdosteine 900 mg/day, spirometry 15-20 minutes after salbutamol): 7.1%
- mean increase of FEV1 (reversibility of bronchial obstruction, post-salbutamol) (erdosteine group, final control at Day 10, erdosteine 900 mg/day): 10.3%

Compound: CC(C)(C)NCC(O)c1ccc(O)c(CO)c1 (centres unmarked) [salbutamol]
- partial reversibility of bronchial obstruction calculated with the FEV1 (mean) (baseline, all the patients, before erdosteine or placebo therapy, salbutamol alone): 2.5%
- FEV1 absolute value after salbutamol [6]: 1.537 L
- FEV1 absolute value before salbutamol [6]: 1.5 L
